# Earlier results, collected in patent US10646430B2, “Topical compositions for stimulating adipogenesis and lipogenesis to reduce the signs of skin aging” (Kimberly-Clark Worldwide, Inc., priority 2014, dated 2020).
# Tested on: 3T3-L1 cells
# Conditions: Kim et al., Nutr. Res. 32(6): 439-447
substance,measurement,value
Fucoidan,adipogenesis (literature),inhibit adipogenesis
